SMILES strings stand for the structures. Where a name gives a salt, the structure may show the parent alone. Read-outs that look alike come from different tables or passages of the source.

For assay [1], the target named is T1, SARS-CoV-2 PLpro (nsp3 1564–1878) (Severe acute respiratory syndrome coronavirus 2, UniProt P0DTD1). In words: biochemical. The following applies: high concentration screen, read-out: % of control remaining. On the set-up: FRET-quenched peptide (Pro3) cleavage by PLpro, 10 min pre-incubation, slope over 20 min, normalised to no-compound control.
In assay [2] the target is T1, SARS-CoV-2 PLpro (nsp3 1564–1878). Put plainly: biochemical. On the set-up: FRET-quenched peptide (Pro3) cleavage by PLpro, 10 min pre-incubation, slope over 20 min, normalised to no-compound control. The note with it: low concentration screen, read-out: % of control remaining.

For `CC1(C)S[C@@H]2[C@H](NC(=O)[C@H](NC(=O)N3CCNC3=O)c3ccccc3)C(=O)N2[C@H]1C(=O)O` [Azlocillin (sodium salt)], the remaining activity at 3.75 µM in assay [1] (Well no.=7454) worked out at 101%. Besides, in assay [2] (Well no.=7454), the remaining activity at 1.25 µM amounted to 94.9%.

On to `CC1(C)S[C@@H]2[C@H](NC(=O)[C@H](NC(=O)N3CCNC3=O)c3ccccc3)C(=O)N2[C@H]1C(=O)O` [Azlocillin sodium salt], for which the remaining activity at 3.75 µM in assay [1] (Well no.=5356) worked out at 93.9%. Besides, the remaining activity at 1.25 µM in assay [2] (Well no.=5356) is 98.5%.

In the case of `c1ccc(/N=N/c2ccccc2)cc1` [Azobenzene], the remaining activity at 3.75 µM in assay [1] (Well no.=8080) turned out to be 101%. Further, the remaining activity at 1.25 µM in assay [2] (Well no.=8080) was found to be 102%.

Regarding `O=[N+]([O-])c1ncc[nH]1` [Azomycin], in assay [1] (Well no.=3571), the remaining activity at 3.75 µM stood at 103%. For the same compound, the remaining activity at 1.25 µM in assay [2] (Well no.=3571) came out at 109%.

For `CCCC(=O)NCCc1csc(-c2ccc(Cl)cc2)n1` [Azoramide], the remaining activity at 3.75 µM in assay [1] (Well no.=8488) is 99.7%. In addition, the remaining activity at 1.25 µM in assay [2] (Well no.=8488) was 98.4%.

Consider `C[C@H]1[C@H](NC(=O)/C(=N\OC(C)(C)C(=O)O)c2csc(N)n2)C(=O)N1S(=O)(=O)O` [Aztreonam], for which the remaining activity at 3.75 µM in assay [1] (Well no.=2169) turned out to be 102%. The remaining activity at 1.25 µM in assay [2] (Well no.=2169) stood at 103%.

For the compound `C=CCN1CCc2nc(N)sc2CC1` [B-HT 920], in assay [1] (Well no.=8195), the remaining activity at 3.75 µM came to 100%. In addition, the remaining activity at 1.25 µM in assay [2] (Well no.=8195) was determined as 99.9%.

For the compound `CCN1CCc2nc(N)oc2CC1` [B-HT 933 dihydrochloride], the remaining activity at 3.75 µM in assay [1] (Well no.=87) worked out at 105%. The remaining activity at 1.25 µM in assay [2] (Well no.=87) was found to be 102%.

On to `O=C(NCCCN1CCC2(CC1)OCc1ccccc12)[C@H]1CCCN1Cc1ccccc1` [BAN ORL 24], for which the remaining activity at 3.75 µM in assay [1] (Well no.=6946) came to 102%. Besides, the remaining activity at 1.25 µM in assay [2] (Well no.=6946) is 97.7%.

For `Cc1ccc(S(=O)(=O)/C=C/C#N)cc1` [BAY 11-7082], the remaining activity at 3.75 µM came to 99.5% in assay [1] (Well no.=79), 99.1% in assay [1] (Well no.=2360) and 104% in assay [1] (Well no.=6204). Moreover, the remaining activity at 1.25 µM was determined as 102% in assay [2] (Well no.=79) and 98.2% in assay [2] (Well no.=2360).

Turning to `Nc1nc(-c2nn(Cc3ccccc3F)c3ncccc23)ncc1C1CC1` [BAY 41-2272], the remaining activity at 3.75 µM in assay [1] (Well no.=7717) was found to be 94.6%. The remaining activity at 1.25 µM in assay [2] (Well no.=7717) stood at 102%.

Turning to `CCn1c(=O)c2c(C)c(C(=O)N3CCC(O)CC3)sc2n(CCC(F)(F)F)c1=O` [BAY-545], the remaining activity at 3.75 µM in assay [1] (Well no.=8597) came to 104%. The remaining activity at 1.25 µM in assay [2] (Well no.=8597) is 106%.

Consider `CC(=O)C1=C(C)N(c2cccc(C(F)(F)F)c2)C(=O)N[C@@H]1c1ccc(C#N)nc1` [BAY-678], for which the remaining activity at 3.75 µM in assay [1] (Well no.=7734) amounted to 101%. Also, in assay [2] (Well no.=7734), the remaining activity at 1.25 µM came to 97.9%.

On to `Cc1c(NC(=O)c2cc(C(N)=O)nc3cc(F)ccc23)c(C(F)(F)F)nn1Cc1ccc(C#N)cc1` [BAY-876], for which the remaining activity at 3.75 µM in assay [1] (Well no.=8680) was found to be 98.3%. Also, the remaining activity at 1.25 µM in assay [2] (Well no.=8680) is 101%.

On to `CN1CCN(CCc2ccc(Cl)c(Cl)c2)CC1` [BD1063 (dhydrochloride)], for which the remaining activity at 3.75 µM in assay [1] (Well no.=8057) came out at 95.3%. In assay [2] (Well no.=8057), the remaining activity at 1.25 µM was determined as 90.2%.

On to `CN(C)CCN(C)CCc1ccc(Cl)c(Cl)c1` [BD 1047 dihydrobromide], for which the remaining activity at 3.75 µM in assay [1] (Well no.=5470) worked out at 108%. The remaining activity at 1.25 µM in assay [2] (Well no.=5470) was determined as 101%.

As for `CN(C)CCN(C)CCc1ccc(Cl)c(Cl)c1` [BD-1047 (dihydrobromide)], the remaining activity at 3.75 µM in assay [1] (Well no.=7287) was 97.8%. In assay [2] (Well no.=7287), the remaining activity at 1.25 µM was 95.4%.

Turning to `N[C@@H](CSCCB(O)O)C(=O)O` [BEC (hydrochloride)], the remaining activity at 3.75 µM in assay [1] (Well no.=8165) is 103%. Moreover, in assay [2] (Well no.=8165), the remaining activity at 1.25 µM was found to be 105%.

In the case of `CCN1CCN(c2ccc(Nc3cc(N(C)C(=O)Nc4c(Cl)c(OC)cc(OC)c4Cl)ncn3)cc2)CC1` [BGJ398 (NVP-BGJ398)], the remaining activity at 3.75 µM in assay [1] (Well no.=5140) is 99.3%. Besides, the remaining activity at 1.25 µM in assay [2] (Well no.=5140) was 97%.

Turning to `CC(C)C(C(=O)O)N1C(=O)/C(=C\c2ccc(Br)cc2)SC1=S` (stereo not shown) [BH3I-1], the remaining activity at 3.75 µM in assay [1] (Well no.=6586) amounted to 99.7%. For the same compound, the remaining activity at 1.25 µM in assay [2] (Well no.=6586) stood at 98.6%.

Regarding `O=c1[nH]nc(Sc2ncc([N+](=O)[O-])s2)n1-c1ccc2c(c1)OCCO2` [BI 78D3 - 4-(2,3-Dihydro-1,4-benzodioxin-6-yl)-2,4-dihydro-5-[(5-nitro-2-thiazolyl)thio]-3H-1,2,4-triazol-3-one], the remaining activity at 3.75 µM in assay [1] (Well no.=2684) stood at 97.1%. Further, the remaining activity at 1.25 µM in assay [2] (Well no.=2684) is 95.6%.

On to `O=c1[nH]nc(Sc2ncc([N+](=O)[O-])s2)n1-c1ccc2c(c1)OCCO2` [BI-78D3], for which the remaining activity at 3.75 µM in assay [1] (Well no.=6058) stood at 96.9%. Moreover, in assay [2] (Well no.=6058), the remaining activity at 1.25 µM is 101%.

On to `CC(C)CCN1c2nc(Nc3cc(F)c(O)c(F)c3)ncc2N(C)C(=O)C1C` (stereo not shown) [BI-D1870], for which the remaining activity at 3.75 µM in assay [1] (Well no.=2787) is 104%. Moreover, the remaining activity at 1.25 µM in assay [2] (Well no.=2787) was determined as 101%.

For the compound `C/C(=C\C(=O)Nc1ccccc1C(=O)O)c1ccc2ccccc2c1` [BIBR 1532], the remaining activity at 3.75 µM in assay [1] (Well no.=5095) was 106%. Also, in assay [2] (Well no.=5095), the remaining activity at 1.25 µM worked out at 103%.

`CN1CCC(Nc2ncc3ncnc(Nc4ccc(F)c(Cl)c4)c3n2)CC1` [BIBX 1382 dihydrochloride - N8-(3-Chloro-4-fluorophenyl)-N2-(1-methyl-4-piperidinyl)-pyrimido[5,4-d]pyrimidine-2,8-diamine dihydrochloride]: the remaining activity at 3.75 µM in assay [1] (Well no.=2528) came out at 91%. Also, the remaining activity at 1.25 µM in assay [2] (Well no.=2528) came out at 96.6%.

Take `COc1c(C)cnc(Cn2cnc3c(Cl)nc(N)nc32)c1C` [BIIB021]: the remaining activity at 3.75 µM in assay [1] (Well no.=5091) turned out to be 107%. The remaining activity at 1.25 µM in assay [2] (Well no.=5091) came to 104%.

`CC(=O)O/N=C1/C(c2c(O)[nH]c3cc(Br)ccc23)=Nc2ccccc21` [BIO-Acetoxime]: the remaining activity at 3.75 µM in assay [1] (Well no.=5822) came out at 93.6%. Besides, the remaining activity at 1.25 µM in assay [2] (Well no.=5822) came out at 96%.

`Cc1ccc(-n2nc(C(C)(C)C)cc2NC(=O)Nc2ccc(OCCN3CCOCC3)c3ccccc23)cc1` [BIRB 796 (Doramapimod)]: the remaining activity at 3.75 µM in assay [1] (Well no.=5264) is 89.7%. Besides, the remaining activity at 1.25 µM in assay [2] (Well no.=5264) came to 89.3%.

For `COc1cc2nc(N3CCCN(C)CC3)nc(NC3CCN(Cc4ccccc4)CC3)c2cc1OC` [BIX01294], in assay [1] (Well no.=5180), the remaining activity at 3.75 µM was determined as 99.6%. Also, the remaining activity at 1.25 µM in assay [2] (Well no.=5180) was 102%.

As to `CN(C)Cc1cccc(N/C(=C2\C(=O)Nc3cc(C(N)=O)ccc32)c2ccccc2)c1` [BIX 02188], the remaining activity at 3.75 µM in assay [1] (Well no.=5283) came to 93.8%. Further, the remaining activity at 1.25 µM in assay [2] (Well no.=5283) worked out at 96.6%.

In the case of `COc1ccc2c(c1)c(CC(=O)N1CCOCC1)c(C)n2C(=O)c1ccc(Cl)cc1` [BML-190], the results for the remaining activity at 3.75 µM in assay [1] (Well no.=4328) and in assay [1] (Well no.=8379) were 92.3% and 97.9%, respectively. The values for the remaining activity at 1.25 µM in assay [2] (Well no.=4328) and in assay [2] (Well no.=8379) were 97.5% and 96.7%, respectively.

Source of the values: publication PMC8286840, “Identifying SARS-CoV-2 antiviral compounds by screening for small molecule inhibitors of Nsp3 papain-like protease” (Biochemical Journal, 2021).
